Reference: patent publication US20160158245A1, “PHARMACEUTICAL FORMULATION CONTAINING THIENOTRIAZOLODIAZEPINE COMPOUNDS” (ONCOETHIX GmbH, priority 2013, published 2016)

Assays:
Type in all cases: cell-based
[1] = tested on: ALL cell lines (Jurkat, RS 4-11, TOM-1) and AML cell lines (HL60, K562, KG1 and KG1a); test: Apoptosis assessment, statements over the ALL and AML cell lines
Procedure: (§1) a total of 1×10^6 cellsderived from patients or cell lines were resuspended in 1 mL culture medium and incubated with the indicated dosages of OTX015 prepared freshly from 1 mM stock solution in DMSO. Control cells were incubated with the corresponding amount of dimethyl sulfoxide (DMSO 0.2-1%) to exclude toxicity of the excipient. Apoptotic cells were detected by cytofluorometric analysis using a FACScan (Becton Dickinson, Mountain View, USA). Cells were stained with propidium iodide (PI; 5 μg/mL; Becton Dickinson) and concomitantly for 15 minutes at RT with annexin-V-FITC (Becton Dickinson) according to the manufacturer's instructions to determine outer membrane phosphatidyl serine exposure. Data were analyzed with the Flowjo (Tree Star Inc., Ashland, USA) flow cytometry software.
Compound (1-1) induced apoptosis in three ALL cell lines (Jurkat, RS 4-11, TOM-1) and four AML cell lines (HL60, K562, KG1 and KG1a) that were treated with different doses of the drug as detected by outer membrane phosphatidylserine exposure and propidium iodide incorporation at different time points (FIGS. 13A-13C and FIGS. 14A-14D). […] In all other cell lines, 50% of cells became apoptotic within 12 to 24 hours after treatment with 100 nM of Compound (1-1).

ALL and AML cell lines = test: Cell cycle analysis (PI flow cytometry)
Procedure: For conventional cell-cycle analysis, 1×10^6 cells were harvested, washed in PBS, and fixed in 70% ice cold ethanol. Cells were incubated with 100 μg/mL RNAse (Sigma, Saint-Quentin Fallavier, France) and stained with PI (25 μg/mL, Becton Dickinson) followed by an incubation period of 30 minutes at 37° C. Subsequently, cell-cycle distribution was determined by cytofluorometric analysis. Data were analyzed with the Flowjo (Tree Star Inc., Ashland, USA) flow cytometry software.

[2] = tested on: CD34+ and CD34− AML cells; test: Apoptosis in primary cells; details: CD34+ and CD34− cells of one AML patient, 24 hours
Procedure: as §1
(§2) The efficacy of Compound (1-1) to induce apoptosis in primary cells was investigated. CD34+ and CD34− cells were obtained by positive selection with CD34+ microbeads from cord blood (healthy controls) and one AML patient.

CD34+ cord blood cells = test: Apoptosis in primary cells; details: CD34+ cord blood cells of healthy controls, 500 nM, 24 hours
Procedure: as §1, §2

CD34− cord blood cells = test: Apoptosis in primary cells; details: CD34− cord blood cells of healthy controls, 24 hours
Procedure: as §1, §2

BRD4, BRD2 and BRD3 = test: RQ-PCR of BRD4, BRD2 and BRD3 in leukemia cell lines; details: 250 nM and 500 nM, 48 h
Procedure: The total RNA obtained after extraction with TRIZOL (Invitrogen, Grand Island, USA) were titrated to 1 μg/uL and stored at −80° C. The complementary DNA (cDNA) was synthesized from 1 μg RNA. The RQ-PCR reactions (BRD2, BRD3, BRD4, c-MYC and ABL) were performed in a volume of 25 ul from a tenth of the cDNA (equivalent to 100 ng of RNA) on a thermocycler ABI7900HT in standard mode (1 cycle of 2 minutes at 50° C.-10 minutes at 95° C. followed by 50 cycles of 15 seconds at 95° C.-1 minute at 60° C.).

[3] = tested on: BRD4, BRD3 and c-MYC in HL60; test: Immunoblot (protein level) in HL60; details: HL60, 500 nM
Procedure: (§3) FIGS. 43A-43L illustrate effects of OTX015 at the protein level for BRD 4, BRD2 and BRD 3 as well as c-MYC. […] AML cell lines HL60, K562 (FIGS. 43A-43C; FIG. 43D-43F) and ALL cell lines Jurkat and RS4-11 (FIG. 43G-43I; FIG. 4JD-43L) were treated with OTX015 at 500 nM and compared to controls exposed to according DMSO. At indicated time-points proteins were extracted and immunoblotted with BRD4, BRD3, BRD2 or c-MYC antibodies after gel electrophoresis. […] One representative experiment out of three is shown.
(§4) The membranes were blocked with LiCor blocking buffer (LiCor, Lincoln, Nebr., USA) and incubated with the respective primary antibody: anti-BRD4 (Epitomics 5716-1, Burlingame, USA), anti-BRD3 (ab56342, AbCam, UK), anti-BRD2 (ab37633, AbCam, UK), anti c-MYC (sc-764 (N262), Santa Cruz, USA) and anti-GAPDH (Invitrogen 398600, Grand Island, USA). Blots were stained with either goat anti-rabbit InfraRedDye 680RD or goat anti-mouse InfraRedDye 800CWsecondary antibody (LiCor). Membranes were imaged using a LiCor Odyssey scanner. Boxes were manually placed around each band of interest, which returned near-infrared fluorescent values of raw intensity with intra-lane background subtracted using Odyssey 3.0 analytical software (LiCor).

[4] = tested on: BRD4, BRD3 and c-MYC in K562; test: Immunoblot (protein level) in K562; details: K562, 500 nM, starting after 24 h
Procedure: as §3, §4

[5] = tested on: c-MYC in BM cells of patient 5; test: Immunoblot of c-MYC in patient bone marrow cells treated ex vivo; details: BM cells of patient 5, 250 and 500 nM, 72 h
Procedure: FIGS. 45A-45E illustrate modulation of c-MYC at the protein level in a patient sample. Protein extracts were obtained from bone marrow (BM) cells of patient 5 (FIG. 44D; FIGS. 45A-45D) upon ex vivo treatment with 250 and 500 nM of OTX015 respectively. […] Bone marrow cells from patient 5 were treated with OTX015 at 250 nM and 500 nM and compared to controls exposed to according concentrations with DMSO. Proteins were extracted at 72 h and immunoblotted with appropriate c-MYC antibodies after gel electrophoresis. […] Expression level of cMYC relative to ABL were realised by RQ-PCR at three time points 24, 48 and 72 h (FIG. 45B). Results in FIG. 45B are shown with means±SD from duplicates.
as §4, with “Boxes were manually placed around each band of interest, which returned near-infrared fluorescent values of raw intensity with intra-lane background subtracted using Odyssey 3.0 analytical software (LiCor).” left out

Structure (SMILES): Cc1sc2c(c1C)C(c1ccc(Cl)cc1)=N[C@@H](CC(=O)Nc1ccc(O)cc1)c1nnc(C)n1-2 [Compound (1-1), 2-[(6S)-4-(4-chlorophenyl)-2,3,9-trimethyl-6H-thienol[3,2-f]-[1,2,4]triazolo[4,3-a][1,4]diazepin-6-yl]-N-(4-hydroxyphenyl)acetamide dihydrate]
- percentage of apoptotic cells ([1]; 100 nM, within 12 to 24 hours, all cell lines other than K562 and KG1a): 50%
- induction of apoptosis, dose dependence ([1]; 72 h, KG1a, NOMO1, RS4-11, BV-173, Jurkat, TOM-1): dose-dependent manner
- induction of apoptosis ([1]; different doses and time points): induced apoptosis in all cell lines tested but to a lesser extent in K562 and KG1a cells
- S phase fraction (ALL and AML cell lines; 48 h, AML and ALL cell lines): decreased S phase fraction in almost all cell lines
- cell cycle arrest (ALL and AML cell lines; all cell lines): induced cell cycle arrest in all cell lines
- in vitro induction of apoptosis [2]: induction of apoptosis in a dose dependent manner
- toxicity (apoptosis) for immature cord blood cells (CD34+ cord blood cells): toxicity for immature CD34+ cells at the 500 nM dose level
- toxicity (apoptosis) for mature cord blood compartment (CD34− cord blood cells): remained unaffected
- down regulation of BRD4, BRD2 or BRD3 at the cDNA level (BRD4, BRD2 and BRD3): not able to detect a consistent down regulation
- upregulation of BRD3 and BRD2 at the cDNA level (BRD4, BRD2 and BRD3): significant upregulation of BRD3 and BRD2 in KG1, K562 and Jurkat and increase of BRD2 in KG1 and HL60
- c-MYC protein level ([3]; 24 h): transient downregulation
- BRD4 and BRD3 protein level ([3]; 72 h): remained unaffected
- BRD4, BRD3 and c-MYC protein level [4]: downregulation of BRD4, BRD3 and c-MYC
- c-MYC protein level [5]: downregulation of c-MYC
